The record followed here is patent US20230263773A1, “COMBINATION THERAPY WITH DEOXYURIDINE TRIPHOSPHATASE INHIBITORS” (CV6 Therapeutics (NI) Limited, priority 2020, published 2023).

In one assay the test system is HMGB1. Description: Extracellular release of HMGB1 into cell culture media by ELISA. The class given is cell-based. The following applies: 12.5 μM Compound A, 1 μM FUdR; 24 hours. An excerpt: Experimental Overview. High mobility group box 1 (HMGB1) is a nuclear non-histone chromatin-binding protein. The release of HMGB1 by immune cells or severely damaged cancer cells functions as an immunostimulatory chemokine and is a well-known damage-associated molecular pattern (DAMP). The release of HMGB1 during cell death is characteristic of immunogenic cell death, a sub-class of cell death that results in the potent stimulation of the innate and subsequently the stimulation of adaptive immune responses. HMGB1 functions as a pro-inflammatory cytokine-like factor and can form hetero-complexes with other immune regulators. HMGB1 binds to TLRs, RAGE and CXCR4 on immune cells stimulating chemotaxis and the secretion of pro-inflammatory factors. HCT116 colon carcinoma and JU77 mesothelioma cells were treated with vehicle control (DMSO), 12.5 μM Compound A, 1 μM FUdR, or the combination of 12.5 μM Compound A and 1 μM FUdR for 24 hours and the release of HMGB1 into the extracellular culture media was measured by ELISA.
Cell Line Model Selection and Preparation. The HCT116 cancer cell line was purchased from ATCC. JU77 cell line was a kind gift from Dr Dan Longley, QUB. Cells were cultured and expanded in humidified incubators at 5% CO2 until sufficient cells were available.
Drug Preparation and Treatments. All drugs/compounds were prepared freshly in cell culture media from 50 mM frozen stocks prior to treatment. Cells were seeded in 6-well culture dishes and allowed to adhere overnight before treatment with Compound A, FUdR, or Compound A in combination with FUdR. Additional wells were treated with doxorubicin to act as a positive inducer of HMGB1. Twenty-four hours after treatment, the media was aspirated and centrifuged (2500 rpm, 5 min, at 4° C.) to remove any cellular debris. The supernatant was collected for immediate processing or stored at −80° C. for later assay.
Detection of HMGB1 Release. HMGB1 was quantified using the HMGB1 ELISA kit (ST51011, IBL International). Enzyme conjugate (HMGB1 conjugated to peroxidase) and standard were reconstituted in 12 ml enzyme conjugate diluent, and 1 ml diluent buffer respectively and aliquots frozen at −80° C. until required. All reagents and samples were brought to room temperature immediately prior to use. A standard curve was prepared for the high sensitive detection range (0.313-10 ng/ml). 50 μl diluent buffer was pipetted into each well of the microtiter plate. 50 μl of standard, sample, positive control or negative control (diluent buffer) was pipetted, in duplicate, into respective wells as determined by the plate set up. The plate was covered with adhesive foil and incubated at 37° C. for 20 to 24 hours on an orbital shaker (450 rpm). Following the incubation period the incubation solution was discarded and the plate washed (5×300 μl per well). Excess wash buffer was removed by inversion on to a paper towel. 100 μl enzyme conjugate was added to each well, the plate covered with adhesive foil and incubated at 25° C. for 2 hours on an orbital shaker (450 rpm). Following the incubation the solution was discarded and the plate washed as before. Fresh color solution was prepared immediately prior to use and 100 μl added to each well using a multichannel pipette. The plate was then incubated for 30 minutes at room temperature. The color reaction was stopped by pipetting 100 μl of stop reagent to each well using a multichannel pipette. The plate was shaken gently to mix and the backs of the wells were cleaned using a lint-free tissue. The concentration of HMGB1 was determined on a CLARIOstar microplate reader by measuring the absorbance at 450 nm using a reference reading at 640 nm. Data was exported to Microsoft Excel for processing and statistical analysis consisting of one-way ANOVA with Tukey's Multiple Comparisons Test was performed in GraphPad Prism 6.
On the technique in general: An ELISA detects its analyte on a solid surface through an enzyme-linked reagent.

For a further assay, the system named is calreticulin. Description: Cell surface calreticulin by flow cytometry. Format: cell-based. As to conditions: 6.25 μM Compound A, 1 μM FUdR, 500 nmol/L doxorubicin; 4 hours. An excerpt: Experimental Overview. Tumor cells undergoing immunogenic cell death (ICD) emit damage associated molecular patterns (DAMPs). ICD is a sub-class of cell death that results in the potent stimulation of the innate immune system and subsequently the stimulation of adaptive immune responses. The cell surface expression of calreticulin during cell death is one of several established DAMPs characteristic of immunogenic cell death. Calreticulin translocates from the endoplasmic reticulin to the cell membrane where it functions as a potent “eat me” signal for macrophages and dictates tumor antigen transfer and therefore the immunogenicity of cancer cell death. PANC1 pancreatic carcinoma cells were treated with vehicle control (DMSO), 6.25 μM Compound A, 1 μM FUdR, or the combination of 6.25 μM Compound A and 1 μM FUdR for 4 hours and the concentration of cell surface calreticulin was deteremined by flow cytometry.
Cell Line Model Selection and Preparation. The PANC1 pancreatic cancer cell line was purchased from ATCC. Cells were cultured and expanded in humidified incubators at 5% CO2 until sufficient cells were available.
Drug Preparation and Treatments. All drugs/compounds were prepared freshly in cell culture media from 50 mM frozen stocks prior to treatment. Cells were seeded in 6-well plates and permitted to adhere overnight. Media was removed and replaced with media containing 6.25 μM Compound A, 1 μM FUdR or a combination of 6.25 μM Compound A and 1 μM FUdR. […]
Detection of Cell Surface Calreticulin. Cell surface calreticulin was quantified by flow cytometry. […] Cells were counted and 300,000 cells were washed in staining buffer and incubated in Calreticulin (D3E6) XP Alexa Fluor 488 Conjugate antibody (Cell Signaling) or IgG antibody (negative control antibody) on ice for 40 minutes. […] The IgG isotype control stained sample was used to correctly identify the positively stained population in which median fluorescence intensity was determined. Median fluorescence intensity values were exported and analyzed in Microsoft Excel and GraphPad Prism 6. […]
In general terms: A flow cytometer gives signals particle by particle.

`COc1cccc2c1C(=O)c1c(O)c3c(c(O)c1C2=O)C[C@@](O)(C(=O)CO)C[C@@H]3O[C@H]1C[C@H](N)[C@H](O)[C@H](C)O1` [doxorubicin]: in the assay with HMGB1, the “increase in concentration of HMGB1 in cell culture media compared to control, HCT116 cells” value stood at 213% and the “increase in concentration of HMGB1 in cell culture media compared to control, JU77 cells” value is reported as “failed to elicit any significant increase”. In the assay on calreticulin, the “increase in cell surface expression of calreticulin compared to control, PANC1 cells” value is 450%.
